Laboratory results from ChEMBL document CHEMBL1201862, “PubChem BioAssay data set” (2004).
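Results reflect a 48-hour exposure of cells in 96-well plates to compound at five concentrations. The concentration for 50% growth inhibition is given as GI50.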 Active and inactive are the calls of the source. Cut-off read from the data, not from the text of the source: active = GI50 up to about 1.1 µM and inactive = higher.

Assays:
Test in all cases: NCI tumour cell line growth inhibition, 48 h
NCI/ADR-RES = tested on: NCI/ADR-RES
SN12C = tested on: SN12C
OVCAR-3 = tested on: OVCAR-3
MDA-MB-435 = tested on: MDA-MB-435
NCI-H460 = tested on: NCI-H460
HOP-62 = tested on: HOP-62
MDA-N = tested on: MDA-N
NCI-H23 = tested on: NCI-H23
SF-268 = tested on: SF-268
SK-OV-3 = tested on: SK-OV-3
PC-3 = tested on: PC-3
UACC-62 = tested on: UACC-62
SK-MEL-5 = tested on: SK-MEL-5
SF-539 = tested on: SF-539
HCT-15 = tested on: HCT-15
OVCAR-8 = tested on: OVCAR-8
SNB-19 = tested on: SNB-19
LOX IMVI = tested on: LOX IMVI
OVCAR-5 = tested on: OVCAR-5
NCI-H522 = tested on: NCI-H522
SF-295 = tested on: SF-295
SK-MEL-28 = tested on: SK-MEL-28
786-0 = tested on: 786-0
HCC 2998 = tested on: HCC 2998
HCT-116 = tested on: HCT-116
COLO 205 = tested on: COLO 205
CCRF-CEM = tested on: CCRF-CEM
M14 = tested on: M14
MCF7 = tested on: MCF7
DU-145 = tested on: DU-145
MOLT-4 = tested on: MOLT-4
SK-MEL-2 = tested on: SK-MEL-2
HT-29 = tested on: HT-29
ACHN = tested on: ACHN
U-251 = tested on: U-251
RXF 393 = tested on: RXF 393
UO-31 = tested on: UO-31
CAKI-1 = tested on: CAKI-1
HOP-92 = tested on: HOP-92
SNB-75 = tested on: SNB-75
OVCAR-4 = tested on: OVCAR-4
UACC-257 = tested on: UACC-257
Hs-578T = tested on: Hs-578T
KM12 = tested on: KM12
TK-10 = tested on: TK-10
BT-549 = tested on: BT-549
MDA-MB-231 = tested on: MDA-MB-231
EKVX = tested on: EKVX
SW-620 = tested on: SW-620
IGROV-1 = tested on: IGROV-1
A549 = tested on: A549
HL-60 = tested on: HL-60
K562 = tested on: K562
A498 = tested on: A498
RPMI-8226 = tested on: RPMI-8226
Malme-3M = tested on: Malme-3M
SR = tested on: SR
NCI-H226 = tested on: NCI-H226

## O=C1Nc2ccccc2/C1=N/Nc1nc(-c2ccc(Br)cc2)cs1
NCI/ADR-RES
  GI50: 18 µM (inactive)
SN12C
  GI50: 27.1 µM (inactive)
OVCAR-3
  GI50: 20.7 µM (inactive)
MDA-MB-435
  GI50: 36.5 µM (inactive)
NCI-H460
  GI50: 21.4 µM (inactive)
HOP-62
  GI50: 14.6 µM (inactive)
MDA-N
  GI50: 41.5 µM (inactive)
NCI-H23
  GI50: 27.2 µM (inactive)
SF-268
  GI50: 20 µM (inactive)
SK-OV-3
  GI50: 23.7 µM (inactive)
PC-3
  GI50: 28.6 µM (inactive)
UACC-62
  GI50: 20.6 µM (inactive)
SK-MEL-5
  GI50: 15.6 µM (inactive)
SF-539
  GI50: 17.5 µM (inactive)
HCT-15
  GI50: 19.4 µM
OVCAR-8
  GI50: 19.5 µM (inactive)
SNB-19
  GI50: 18.5 µM (inactive)
LOX IMVI
  GI50: 17.4 µM (inactive)
OVCAR-5
  GI50: 23.8 µM (inactive)
NCI-H522
  GI50: 25.9 µM (inactive)
SF-295
  GI50: 24.1 µM (inactive)
SK-MEL-28
  GI50: 12.6 µM (inactive)
786-0
  GI50: 17.3 µM (inactive)
HCC 2998
  GI50: 31.8 µM (inactive)
HCT-116
  GI50: 26.7 µM (inactive)
COLO 205
  GI50: 24.9 µM (inactive)
CCRF-CEM
  GI50: 15.7 µM (inactive)
M14
  GI50: 21.8 µM (inactive)
MCF7
  GI50: 37.3 µM (inactive)
DU-145
  GI50: 23.3 µM (inactive)
MOLT-4
  GI50: 74.8 µM (inactive)
SK-MEL-2
  GI50: 46.1 µM (inactive)
HT-29
  GI50: 17.7 µM (inactive)
ACHN
  GI50: 17.5 µM (inactive)
U-251
  GI50: 14.3 µM (inactive)
RXF 393
  GI50: 43.9 µM (inactive)
UO-31
  GI50: 10.3 µM (inactive)
CAKI-1
  GI50: 18.6 µM (inactive)
HOP-92
  GI50: 11.4 µM (inactive)
SNB-75
  GI50: 19.7 µM (inactive)
OVCAR-4
  GI50: 18.5 µM (inactive)
UACC-257
  GI50: 22.7 µM (inactive)
Hs-578T
  GI50: 17.9 µM (inactive)
KM12
  GI50: 30.3 µM (inactive)
TK-10
  GI50: 28.6 µM (inactive)
BT-549
  GI50: 20 µM (inactive)
MDA-MB-231
  GI50: 17.5 µM (inactive)
EKVX
  GI50: 7.85 µM (inactive)
SW-620
  GI50: 28.2 µM (inactive)
IGROV-1
  GI50: 0.678 µM (active)
A549
  GI50: 25.2 µM (inactive)

## O=c1[nH]n(CCc2ccccc2CCl)c2ccc([N+](=O)[O-])cc12
NCI/ADR-RES
  GI50: 31.8 µM (inactive)
SN12C
  GI50: > 100 µM (inactive)
OVCAR-3
  GI50: > 100 µM (inactive)
HL-60
  GI50: 29.4 µM (inactive)
MDA-MB-435
  GI50: 63.5 µM (inactive)
NCI-H460
  GI50: 57 µM (inactive)
HOP-62
  GI50: > 100 µM (inactive)
K562
  GI50: 38.9 µM (inactive)
NCI-H23
  GI50: 89.9 µM (inactive)
SF-268
  GI50: > 100 µM (inactive)
PC-3
  GI50: 78.3 µM (inactive)
UACC-62
  GI50: 45.8 µM (inactive)
SK-MEL-5
  GI50: 29.7 µM (inactive)
SF-539
  GI50: > 100 µM (inactive)
HCT-15
  GI50: > 100 µM
OVCAR-8
  GI50: 71.3 µM (inactive)
SNB-19
  GI50: > 100 µM (inactive)
LOX IMVI
  GI50: 41.5 µM (inactive)
OVCAR-5
  GI50: > 100 µM (inactive)
NCI-H522
  GI50: 52.6 µM (inactive)
SF-295
  GI50: 52.5 µM (inactive)
SK-MEL-28
  GI50: > 100 µM (inactive)
A498
  GI50: 91 µM (inactive)
786-0
  GI50: 93.8 µM (inactive)
HCC 2998
  GI50: > 100 µM (inactive)
HCT-116
  GI50: 52.1 µM (inactive)
COLO 205
  GI50: > 100 µM (inactive)
CCRF-CEM
  GI50: 37 µM (inactive)
M14
  GI50: 58.1 µM (inactive)
MCF7
  GI50: 48.5 µM (inactive)
DU-145
  GI50: 77.3 µM (inactive)
MOLT-4
  GI50: 72.8 µM (inactive)
SK-MEL-2
  GI50: > 100 µM (inactive)
HT-29
  GI50: 88.1 µM (inactive)
ACHN
  GI50: > 100 µM (inactive)
U-251
  GI50: 81.8 µM (inactive)
RXF 393
  GI50: 92.3 µM (inactive)
RPMI-8226
  GI50: > 100 µM (inactive)
UO-31
  GI50: 25 µM (inactive)
CAKI-1
  GI50: 91 µM (inactive)
HOP-92
  GI50: 67.6 µM (inactive)
OVCAR-4
  GI50: 37.2 µM (inactive)
Malme-3M
  GI50: > 100 µM (inactive)
UACC-257
  GI50: 70.6 µM (inactive)
Hs-578T
  GI50: 54.3 µM (inactive)
KM12
  GI50: 83.8 µM (inactive)
TK-10
  GI50: > 100 µM (inactive)
BT-549
  GI50: 33.3 µM (inactive)
MDA-MB-231
  GI50: 76.2 µM (inactive)
EKVX
  GI50: 3.65 µM (inactive)
SW-620
  GI50: > 100 µM (inactive)
IGROV-1
  GI50: 83.9 µM (inactive)
A549
  GI50: 99.1 µM (inactive)
SR
  GI50: 50.9 µM (inactive)
NCI-H226
  GI50: 95.9 µM (inactive)

## Cc1cc2c(cc1Cl)Sc1n[nH]c(=O)n1S2(=O)=O
NCI/ADR-RES
  GI50: > 100 µM (inactive)
SN12C
  GI50: > 100 µM (inactive)
OVCAR-3
  GI50: 95.5 µM (inactive)
HL-60
  GI50: > 100 µM (inactive)
MDA-MB-435
  GI50: > 100 µM (inactive)
NCI-H460
  GI50: > 100 µM (inactive)
HOP-62
  GI50: > 100 µM (inactive)
K562
  GI50: > 100 µM (inactive)
MDA-N
  GI50: > 100 µM (inactive)
NCI-H23
  GI50: > 100 µM (inactive)
SF-268
  GI50: > 100 µM (inactive)
SK-OV-3
  GI50: > 100 µM (inactive)
PC-3
  GI50: > 100 µM (inactive)
UACC-62
  GI50: > 100 µM (inactive)
SK-MEL-5
  GI50: 35.8 µM (inactive)
SF-539
  GI50: > 100 µM (inactive)
HCT-15
  GI50: > 100 µM
OVCAR-8
  GI50: > 100 µM (inactive)
SNB-19
  GI50: > 100 µM (inactive)
LOX IMVI
  GI50: > 100 µM (inactive)
OVCAR-5
  GI50: > 100 µM (inactive)
NCI-H522
  GI50: 87.5 µM (inactive)
SF-295
  GI50: > 100 µM (inactive)
SK-MEL-28
  GI50: > 100 µM (inactive)
A498
  GI50: 19.4 µM (inactive)
786-0
  GI50: > 100 µM (inactive)
HCC 2998
  GI50: > 100 µM (inactive)
HCT-116
  GI50: > 100 µM (inactive)
COLO 205
  GI50: > 100 µM (inactive)
CCRF-CEM
  GI50: > 100 µM (inactive)
M14
  GI50: > 100 µM (inactive)
MCF7
  GI50: > 100 µM (inactive)
DU-145
  GI50: > 100 µM (inactive)
MOLT-4
  GI50: > 100 µM (inactive)
HT-29
  GI50: > 100 µM (inactive)
ACHN
  GI50: > 100 µM (inactive)
U-251
  GI50: > 100 µM (inactive)
UO-31
  GI50: > 100 µM (inactive)
CAKI-1
  GI50: > 100 µM (inactive)
HOP-92
  GI50: 54.3 µM (inactive)
SNB-75
  GI50: > 100 µM (inactive)
OVCAR-4
  GI50: > 100 µM (inactive)
Malme-3M
  GI50: 40.6 µM (inactive)
UACC-257
  GI50: > 100 µM (inactive)
Hs-578T
  GI50: > 100 µM (inactive)
KM12
  GI50: > 100 µM (inactive)
TK-10
  GI50: > 100 µM (inactive)
BT-549
  GI50: > 100 µM (inactive)
MDA-MB-231
  GI50: > 100 µM (inactive)
EKVX
  GI50: > 100 µM (inactive)
SW-620
  GI50: > 100 µM (inactive)
IGROV-1
  GI50: > 100 µM (inactive)
A549
  GI50: > 100 µM (inactive)
NCI-H226
  GI50: > 100 µM (inactive)
